What was measured:
[1] = test system: Thermosynechococcus sp. NK55a PPO CyPPO17, wild type, SEQ ID NO: 3; assay: PPO enzyme kinetics (Vmax); assay type: biochemical; conditions: substrate protoporphyrinogen IX
Procedure: (§1) Thus, PPO proteins of wild type and variants were expressed as fused to MBP and were used for experiments.
(§2) Overall process was performed in dark under nitrogen stream. […] of protoporphyrin IX was dissolved in 20 ml of 20% (v/v) EtOH, and stirred under dark condition for 30 minutes. The obtained protoporphyrin IX solution was put into a 15 ml screw tube in an amount of 800 μl, and flushed with nitrogen gas for 5 minutes. To this, 1.5 g of sodium amalgam was added and vigorously shaken for 2 minutes. The lid was opened to exhaust hydrogen gas in the tube. Thereafter, the lid was closed and incubated for 3 minutes. […] To determine the enzyme activity of PPO protein, a reaction mixture was prepared with the following composition (based on 10 ml): 50 mM Tris-Cl (pH 8.0); 50 mM NaCl; 0.04% (v/v) Tween 20; 40 mM glucose (0.072 g); 5 units glucose oxidase (16.6 mg); and 10 units catalase (1 μl).
(§3) Hundred and eighty microliters of a reaction mixture containing the purified PPO protein were placed in 96 well plates and 20 μl of […] were added. […] The reaction proceeded at room temperature for 30 min and the fluorescence of protoporphyrin IX was measured using Microplate reader (Sense, Hidex) (excitation: 405 nm; emission: 633 nm). […] To this, 2.7 N HCl was added, and the absorbance at 408 nm was measured. A standard curve was generated using standard protoporphyrin IX, and PPO activity was measured by calibration of protoporphyrin IX using the standard curve of protoporphyrin IX.
(§4) Meanwhile, the maximal velocity (Vmax) values of each enzyme were determined in order to evaluate the kinetic characteristics of CyPPO16 and CyPPO17. The initial reaction velocity was measured where the reaction velocity was proportional to concentration by varying the substrate concentration. The amount of produced protoporphyrin IX, the enzyme reaction product, was measured by time course at room temperature for 20 minutes. Vmax values were calculated with the enzyme kinetics analysis program by Michaelis-Menten equation.

[2] = test system: Spirulina subsalsa PPO CyPPO16, wild type, SEQ ID NO: 1; assay: PPO enzyme kinetics (Vmax); assay type: biochemical; conditions: substrate protoporphyrinogen IX
Procedure: as §1, §2, §3, §4

[3] = test system: CyPPO17 wild type (SEQ ID NO: 3) in PPO-deficient E. coli BT3(ΔPPO); assay type: cell-based; conditions: LB agar, 37° C., light, 16 to 20 hours
Procedure: (§5) The mutated CyPPO gene obtained from the Example 2 was transformed to BT3 (ΔPPO) strain which is deficient of PPO activity and cultured in LB media with PPO-inhibiting herbicide, thereby examining whether growth of transformed BT3 was not inhibited.
(§6) BT3 competent cells were transformed with the pET303-CyPPO16 and pET303-CyPPO17 plasmids and those with a mutation(s) constructed in Example 2 respectively, and were cultured in LB agar media containing carbenicillin (Gold Biotechnology, Co., Ltd.).
(§7) Single colony of E. coli transformed with each CyPPO gene was cultured in 3 ml of LB broth containing carbenicillin overnight, and then was subcultured until absorbance (0D600) reached 0.5 to 1. Then, it was diluted with LB broth to OD600=0.5. Again, the diluted solution was serially diluted 4 times by a factor of one tenth.
(§8) The LB agar media (LB 25 g/l, Bacto agar 15 g/l) containing carbenicillin (100 μg/ml) and 0 to 4,000 μM of various herbicides dissolved in DMSO was prepared. Next, 10 μl of each diluted solution was dropped on the plate and cultured at 37° C. under light (Tables 7 and 9, FIGS. 2 to 6, and 18 to 22) or dark (Tables 8 and 10, FIGS. 7 to 17, and 23 to 33) for 16 to 20 hours. Then, extent of tolerance was evaluated.
(§9) The extent of herbicide tolerance of the mutated genes was evaluated by comparing that of mutated genes with that of wild type. The relative tolerance was represented with “+” as a factor of 10 times. Evaluation result was listed in Tables 7 to10 and FIGS. 2 to 33:
(§10) In Tables 7 to 10, tolerance level was presented as of tolerance of wild type and of variants equivalent to that of wild type, and was done as ‘+’ per each 10 fold resistance until ‘+++++’ as maximal resistance. (Tolerance level was evaluated by relative growth level of variants to that of wild type in the media containing highest concentration of herbicide; ‘+’=1-9 fold higher tolerance, ‘++’=10-99 fold higher tolerance, ‘+++’=100-999 fold higher tolerance, ‘++++’=1,000-9,999 fold higher tolerance, ‘+++++’=more than 10,000 fold higher tolerance)

[4] = test system: CyPPO16 wild type (SEQ ID NO: 1) in PPO-deficient E. coli BT3(ΔPPO); assay type: cell-based; conditions: LB agar, 37° C., light, 16 to 20 hours
Procedure: as §5, §6, §7, §8, §9, §10

[5] = test system: CyPPO17 (SEQ ID NO: 3) variant F359C in PPO-deficient E. coli BT3(ΔPPO); assay type: cell-based; conditions: LB agar, 37° C., light, 16 to 20 hours
Procedure: as §5, §6, §7, §8
(§11) The extent of herbicide tolerance of the mutated genes was evaluated by comparing that of mutated genes with that of wild type. The relative tolerance was represented with “+” as a factor of 10 times.
(§12) In Tables 7 to 10, tolerance level was presented as of tolerance of wild type and of variants equivalent to that of wild type, and was done as ‘+’ per each 10 fold resistance until ‘+++++’ as maximal resistance.

[6] = test system: CyPPO17 (SEQ ID NO: 3) variant F359L in PPO-deficient E. coli BT3(ΔPPO); assay type: cell-based; conditions: LB agar, 37° C., light, 16 to 20 hours
Procedure: as §5, §6, §7, §8, §11, §12

[7] = test system: CyPPO16 (SEQ ID NO: 1) variant F360C in PPO-deficient E. coli BT3(ΔPPO); assay type: cell-based; conditions: LB agar, 37° C., light, 16 to 20 hours
Procedure: as §5, §6, §7, §8, §11, §12

[8] = test system: CyPPO17 (SEQ ID NO: 3) variant V304M in PPO-deficient E. coli BT3(ΔPPO); assay type: cell-based; conditions: LB agar, 37° C., light, 16 to 20 hours
Procedure: as §5, §6, §7, §8, §11, §12

[9] = test system: CyPPO16 (SEQ ID NO: 1) variant F360V in PPO-deficient E. coli BT3(ΔPPO); assay type: cell-based; conditions: LB agar, 37° C., light, 16 to 20 hours
Procedure: as §5, §6, §7, §8, §11, §12

[10] = test system: CyPPO16 (SEQ ID NO: 1) variant A162L in PPO-deficient E. coli BT3(ΔPPO); assay type: cell-based; conditions: LB agar, 37° C., light, 16 to 20 hours
Procedure: as §5, §6, §7, §8, §11, §12

[11] = test system: CyPPO16 (SEQ ID NO: 1) variant F360I in PPO-deficient E. coli BT3(ΔPPO); assay type: cell-based; conditions: LB agar, 37° C., light, 16 to 20 hours
Procedure: as §5, §6, §7, §8, §11, §12

[12] = test system: CyPPO17 (SEQ ID NO: 3) variant A166C in PPO-deficient E. coli BT3(ΔPPO); assay type: cell-based; conditions: LB agar, 37° C., light, 16 to 20 hours
Procedure: as §5, §6, §7, §8, §11, §12

[13] = test system: CyPPO16 (SEQ ID NO: 1) variant F360L in PPO-deficient E. coli BT3(ΔPPO); assay type: cell-based; conditions: LB agar, 37° C., light, 16 to 20 hours
Procedure: as §5, §6, §7, §8, §11, §12

[14] = test system: CyPPO16 (SEQ ID NO: 1) variant F360M in PPO-deficient E. coli BT3(ΔPPO); assay type: cell-based; conditions: LB agar, 37° C., light, 16 to 20 hours
Procedure: as §5, §6, §7, §8, §11, §12

[15] = test system: CyPPO16 (SEQ ID NO: 1) variant V305M in PPO-deficient E. coli BT3(ΔPPO); assay type: cell-based; conditions: LB agar, 37° C., light, 16 to 20 hours
Procedure: as §5, §6, §7, §8, §11, §12

[16] = test system: CyPPO17 (SEQ ID NO: 3) variant V304L in PPO-deficient E. coli BT3(ΔPPO); assay type: cell-based; conditions: LB agar, 37° C., light, 16 to 20 hours
Procedure: as §5, §6, §7, §8, §11, §12

[17] = test system: CyPPO17 (SEQ ID NO: 3) variant F359M in PPO-deficient E. coli BT3(ΔPPO); assay type: cell-based; conditions: LB agar, 37° C., light, 16 to 20 hours
Procedure: as §5, §6, §7, §8, §11, §12

[18] = test system: CyPPO17 (SEQ ID NO: 3) variant F359I in PPO-deficient E. coli BT3(ΔPPO); assay type: cell-based; conditions: LB agar, 37° C., light, 16 to 20 hours
Procedure: as §5, §6, §7, §8, §11, §12

[19] = test system: CyPPO17 (SEQ ID NO: 3) variant A166L in PPO-deficient E. coli BT3(ΔPPO); assay type: cell-based; conditions: LB agar, 37° C., light, 16 to 20 hours
Procedure: as §5, §6, §7, §8, §11, §12

[20] = test system: CyPPO16 (SEQ ID NO: 1) variant A162C in PPO-deficient E. coli BT3(ΔPPO); assay type: cell-based; conditions: LB agar, 37° C., light, 16 to 20 hours
Procedure: as §5, §6, §7, §8, §11, §12

[21] = room temperature, 20 min time course, Michaelis-Menten

C=Cc1c2[nH]c(c1C)Cc1[nH]c(c(CCC(=O)O)c1C)Cc1[nH]c(c(C)c1CCC(=O)O)Cc1[nH]c(c(C)c1C=C)C2 [protoporphyrinogen IX]
Vmax compared with AtPPO1 [1]: more than two times higher | Vmax [1, 21]: 378 nmole mg protein^−1 min^−1 | Vmax compared with AtPPO1 [2]: more than two times higher | Vmax [2, 21]: 336 nmole mg protein^−1 min^−1

CC(C)N(C)S(=O)(=O)NC(=O)c1cc(-n2c(=O)cc(C(F)(F)F)n(C)c2=O)c(F)cc1Cl [saflufenacil]
Herbicide tolerance (relative to wild type) [3]: − | Herbicide tolerance (relative to wild type) [4]: − | Herbicide tolerance (relative to wild type) [5]: +++ (100-999 fold higher tolerance) | Herbicide tolerance (relative to wild type) [6]: +++ (100-999 fold higher tolerance) | Herbicide tolerance (relative to wild type) [7]: +++ (100-999 fold higher tolerance) | Herbicide tolerance (relative to wild type) [8]: +++ (100-999 fold higher tolerance) | Herbicide tolerance (relative to wild type) [9]: +++ (100-999 fold higher tolerance) | Herbicide tolerance (relative to wild type) [10]: +++ (100-999 fold higher tolerance) | Herbicide tolerance (relative to wild type) [11]: +++ (100-999 fold higher tolerance) | Herbicide tolerance (relative to wild type) [12]: +++ (100-999 fold higher tolerance) | Herbicide tolerance (relative to wild type) [13]: +++ (100-999 fold higher tolerance) | Herbicide tolerance (relative to wild type) [14]: +++ (100-999 fold higher tolerance) | Herbicide tolerance (relative to wild type) [15]: +++ (100-999 fold higher tolerance) | Herbicide tolerance (relative to wild type) [16]: + (1-9 fold higher tolerance) | Herbicide tolerance (relative to wild type) [17]: +++ (100-999 fold higher tolerance) | Herbicide tolerance (relative to wild type) [18]: +++ (100-999 fold higher tolerance) | Herbicide tolerance (relative to wild type) [19]: +++ (100-999 fold higher tolerance) | Herbicide tolerance (relative to wild type) [20]: +++ (100-999 fold higher tolerance)

— US11219221B2 (FarmHannong Co., Ltd., priority 2017, dated 2022)
